# Results reported in PubChem BioAssay (NCI).
#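 Test compounds were applied to cells in 96-well plates for 48 hours at 5 doses. TGI marks complete inhibition of growth.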 Where a SMILES comes first, the peptide text is derived from it. The star is where a group is joined. Cbz = O=C(OCc1ccccc1)*; NHNH2 = NN*
# How the values were obtained:
# Experiment in all cases: inhibition of tumour cell growth, NCI panel, 48 h
# 786-0 renal = test system: 786-0 renal
# A498 renal = test system: A498 renal
# BT-549 breast = test system: BT-549 breast
# EKVX NSCLC = test system: EKVX NSCLC
# HT29 colon = test system: HT29 colon
# MALME-3M melanoma = test system: MALME-3M melanoma
# SF-295 CNS = test system: SF-295 CNS
# SF-539 CNS = test system: SF-539 CNS
# T-47D breast = test system: T-47D breast
# K-562 leukemia = test system: K-562 leukemia
smiles,measurement,setting,value
O=c1c(-c2ccc(Cl)cc2)nnc2n(Cc3ccccc3)c3ccccc3n12,TGI,786-0 renal,42.8 µM
same,TGI,A498 renal,69.5 µM
same,TGI,BT-549 breast,57.2 µM
same,TGI,EKVX NSCLC,> 100 µM
same,TGI,HT29 colon,> 100 µM
same,TGI,MALME-3M melanoma,> 100 µM
same,TGI,SF-295 CNS,49.4 µM
same,TGI,SF-539 CNS,37.9 µM
same,TGI,T-47D breast,> 100 µM
O=C(N/N=C/c1ccco1)c1cc(I)cc(I)c1O,TGI,786-0 renal,37.4 µM
same,TGI,A498 renal,32.8 µM
same,TGI,BT-549 breast,> 50 µM
same,TGI,EKVX NSCLC,37.2 µM
same,TGI,HT29 colon,> 50 µM
same,TGI,K-562 leukemia,> 50 µM
same,TGI,MALME-3M melanoma,> 50 µM
same,TGI,SF-539 CNS,26 µM
same,TGI,T-47D breast,> 50 µM
COC(=O)C1=Nc2c(C)nn(-c3ccccc3)c2N=C(c2ccc([N+](=O)[O-])cc2)C1,TGI,786-0 renal,> 10 µM
same,TGI,BT-549 breast,> 10 µM
same,TGI,HT29 colon,> 10 µM
same,TGI,K-562 leukemia,> 10 µM
same,TGI,MALME-3M melanoma,> 10 µM
same,TGI,SF-295 CNS,> 10 µM
same,TGI,SF-539 CNS,> 10 µM
same,TGI,T-47D breast,> 10 µM
COc1c(Br)cc(CC(N)=O)c(O)c1Br,TGI,A498 renal,> 100 µM
same,TGI,EKVX NSCLC,> 100 µM
same,TGI,HT29 colon,> 100 µM
same,TGI,K-562 leukemia,> 100 µM
same,TGI,MALME-3M melanoma,> 100 µM
same,TGI,SF-295 CNS,> 100 µM
same,TGI,SF-539 CNS,> 100 µM
CC1(C)OCC2OC3([C@H]4OC(C)(C)O[C@@H]4CO)OC(C)(C)OC3C2O1 (some centres not stated),TGI,786-0 renal,> 100 µM
same,TGI,A498 renal,> 100 µM
same,TGI,BT-549 breast,> 100 µM
same,TGI,EKVX NSCLC,> 100 µM
same,TGI,HT29 colon,> 100 µM
same,TGI,K-562 leukemia,> 100 µM
same,TGI,SF-295 CNS,> 100 µM
same,TGI,SF-539 CNS,> 100 µM
same,TGI,T-47D breast,> 100 µM
Nc1ccc2[nH]c(-c3cccc(Cl)c3)cc(=O)c2c1,TGI,786-0 renal,> 100 µM
same,TGI,BT-549 breast,> 100 µM
same,TGI,EKVX NSCLC,> 100 µM
same,TGI,HT29 colon,29.5 µM
same,TGI,MALME-3M melanoma,> 100 µM
same,TGI,SF-539 CNS,5.15 µM
same,TGI,T-47D breast,> 100 µM
Nc1c(C(=O)c2ccc(Cl)cc2)[nH]c(NCc2ccccc2)c1C(=S)Nc1ccccc1,TGI,786-0 renal,3.14 µM
same,TGI,A498 renal,23 µM
same,TGI,BT-549 breast,7.06 µM
same,TGI,EKVX NSCLC,20.1 µM
same,TGI,HT29 colon,3.7 µM
same,TGI,K-562 leukemia,4.04 µM
same,TGI,SF-295 CNS,3.32 µM
same,TGI,SF-539 CNS,13.8 µM
same,TGI,T-47D breast,65.1 µM
O=C(Cc1ccccc1)NN1C(=O)/C(=C\c2ccc([N+](=O)[O-])cc2)SC1=Nc1ccccc1,TGI,786-0 renal,> 100 µM
same,TGI,A498 renal,> 100 µM
same,TGI,EKVX NSCLC,> 100 µM
same,TGI,HT29 colon,> 100 µM
same,TGI,K-562 leukemia,> 100 µM
same,TGI,SF-295 CNS,> 100 µM
same,TGI,SF-539 CNS,> 100 µM
same,TGI,T-47D breast,> 100 µM
O=c1c2ccccc2nc(Nc2cccc(Cl)c2)n1/N=C/C=C/c1ccccc1,TGI,786-0 renal,> 100 µM
same,TGI,BT-549 breast,> 100 µM
same,TGI,EKVX NSCLC,> 100 µM
same,TGI,HT29 colon,> 100 µM
same,TGI,K-562 leukemia,> 100 µM
same,TGI,MALME-3M melanoma,> 100 µM
same,TGI,SF-295 CNS,> 100 µM
same,TGI,SF-539 CNS,> 100 µM
same,TGI,T-47D breast,> 100 µM
COC(=O)CC(NC(=O)OCc1ccccc1)C(=O)NC(CC(=O)OC)C(=O)NC(CC(=O)OC)C(=O)NC(CC(=O)OC)C(=O)NC(CC(=O)OC)C(=O)NC(CC(=O)OC)C(=O)NN (configuration not stated) (Cbz-D(OMe)D(OMe)D(OMe)D(OMe)D(OMe)D(OMe)-NHNH2; configuration not given here),TGI,786-0 renal,> 100 µM
same,TGI,BT-549 breast,> 100 µM
same,TGI,HT29 colon,> 100 µM
same,TGI,K-562 leukemia,> 100 µM
same,TGI,SF-295 CNS,> 100 µM
same,TGI,SF-539 CNS,> 100 µM
same,TGI,T-47D breast,> 100 µM
COc1cc(/C=C\C(=O)O)ccc1OCc1ccccc1,TGI,786-0 renal,> 100 µM
same,TGI,A498 renal,> 100 µM
same,TGI,EKVX NSCLC,> 100 µM
same,TGI,K-562 leukemia,> 100 µM
same,TGI,MALME-3M melanoma,> 100 µM
same,TGI,SF-295 CNS,> 100 µM
same,TGI,SF-539 CNS,> 100 µM
same,TGI,T-47D breast,> 100 µM
CCOC(=O)C(CC#Cc1ccc(C#CCC(NC(C)=O)C(=O)OCC)cc1)NC(C)=O (configuration not stated),TGI,786-0 renal,> 100 µM
same,TGI,A498 renal,> 100 µM
same,TGI,EKVX NSCLC,> 100 µM
same,TGI,HT29 colon,> 100 µM
same,TGI,K-562 leukemia,> 100 µM
same,TGI,MALME-3M melanoma,> 100 µM
same,TGI,SF-295 CNS,> 100 µM
same,TGI,SF-539 CNS,> 100 µM
same,TGI,T-47D breast,> 100 µM
CN(C)CCn1c(=O)c2ccc(NCCCN(C)CCCNc3ccc4c(=O)n(CCN(C)C)c(=O)n5c6ccc([N+](=O)[O-])cc6c(=O)c3c45)c3c(=O)c4cc([N+](=O)[O-])ccc4n(c1=O)c23,TGI,786-0 renal,0.385 µM
same,TGI,A498 renal,0.398 µM
same,TGI,BT-549 breast,0.176 µM
same,TGI,EKVX NSCLC,1.32 µM
same,TGI,HT29 colon,0.726 µM
same,TGI,MALME-3M melanoma,0.781 µM
same,TGI,SF-295 CNS,0.594 µM
same,TGI,SF-539 CNS,0.851 µM
same,TGI,T-47D breast,> 100 µM
COC(=O)c1ccc(C=Nc2ccc(S(N)(=O)=O)cc2)cc1,TGI,786-0 renal,> 100 µM
same,TGI,A498 renal,> 100 µM
same,TGI,BT-549 breast,> 100 µM
same,TGI,EKVX NSCLC,> 100 µM
same,TGI,HT29 colon,> 100 µM
same,TGI,MALME-3M melanoma,> 100 µM
same,TGI,SF-295 CNS,> 100 µM
same,TGI,SF-539 CNS,> 100 µM
same,TGI,T-47D breast,> 100 µM
C=CCOCCCCC(C(C)=O)C(=O)OC (configuration not stated),TGI,786-0 renal,> 100 µM
same,TGI,A498 renal,> 100 µM
same,TGI,HT29 colon,> 100 µM
same,TGI,K-562 leukemia,> 100 µM
same,TGI,MALME-3M melanoma,> 100 µM
same,TGI,SF-295 CNS,> 100 µM
same,TGI,SF-539 CNS,> 100 µM
Cn1c2ccccc2n2c(=O)c3cc([N+](=O)[O-])ccc3c(C#N)c12,TGI,786-0 renal,> 100 µM
same,TGI,BT-549 breast,> 100 µM
same,TGI,EKVX NSCLC,> 100 µM
same,TGI,HT29 colon,> 100 µM
same,TGI,K-562 leukemia,> 100 µM
same,TGI,SF-295 CNS,> 100 µM
same,TGI,SF-539 CNS,> 100 µM
same,TGI,T-47D breast,> 100 µM
O=C(O)C(CS)N=c1c2ccccc2n(O)c2ccccc12 (configuration not stated),TGI,786-0 renal,> 100 µM
same,TGI,A498 renal,> 100 µM
same,TGI,EKVX NSCLC,> 100 µM
same,TGI,HT29 colon,> 100 µM
same,TGI,K-562 leukemia,> 100 µM
same,TGI,MALME-3M melanoma,> 100 µM
same,TGI,SF-295 CNS,> 100 µM
COC(=O)/C=C/c1cc(OC)c(OC)c(OC)c1,TGI,786-0 renal,> 100 µM
same,TGI,EKVX NSCLC,> 100 µM
same,TGI,HT29 colon,> 100 µM
same,TGI,MALME-3M melanoma,> 100 µM
same,TGI,SF-295 CNS,> 100 µM
same,TGI,SF-539 CNS,> 100 µM
CNC(=O)N(CCC#N)[C@H]1CCCC[C@@H]1N(C(=O)NC)c1ccccc1,TGI,786-0 renal,> 100 µM
same,TGI,BT-549 breast,> 100 µM
same,TGI,EKVX NSCLC,> 100 µM
same,TGI,HT29 colon,> 100 µM
same,TGI,K-562 leukemia,> 100 µM
same,TGI,MALME-3M melanoma,> 100 µM
same,TGI,SF-295 CNS,> 100 µM
same,TGI,SF-539 CNS,> 100 µM
same,TGI,T-47D breast,> 100 µM
NC(=O)C(=CNC(=S)c1ccncc1)C(N)=O,TGI,786-0 renal,> 100 µM
same,TGI,BT-549 breast,> 100 µM
same,TGI,EKVX NSCLC,> 100 µM
same,TGI,HT29 colon,> 100 µM
same,TGI,K-562 leukemia,> 100 µM
same,TGI,SF-295 CNS,> 100 µM
same,TGI,SF-539 CNS,> 100 µM
same,TGI,T-47D breast,> 100 µM
CCNC(=O)C1CCCN1C(=O)C(CCCN=C(N)N)NC(=O)C(CC(C)C)NC(=O)C(Cc1c[nH]c2ccccc12)NC(=O)C(Cc1ccc(O)cc1)NC(=O)C(CO)NC(=O)C(Cc1c[nH]c2ccccc12)NC(=O)C(Cc1cnc[nH]1)NC(=O)C1CCC(=O)N1 (configuration not stated),TGI,786-0 renal,> 100 µM
same,TGI,A498 renal,> 100 µM
same,TGI,BT-549 breast,> 100 µM
same,TGI,EKVX NSCLC,> 100 µM
same,TGI,HT29 colon,> 100 µM
same,TGI,K-562 leukemia,> 100 µM
same,TGI,MALME-3M melanoma,> 100 µM
same,TGI,SF-295 CNS,> 100 µM
same,TGI,SF-539 CNS,> 100 µM
O=C(Cc1ccc([N+](=O)[O-])cc1)OCC#CCOC(=O)Cc1ccc([N+](=O)[O-])cc1,TGI,786-0 renal,> 10 µM
same,TGI,BT-549 breast,> 10 µM
same,TGI,EKVX NSCLC,> 10 µM
same,TGI,HT29 colon,> 10 µM
same,TGI,K-562 leukemia,> 10 µM
same,TGI,MALME-3M melanoma,> 10 µM
same,TGI,SF-295 CNS,> 10 µM
same,TGI,SF-539 CNS,> 10 µM
same,TGI,T-47D breast,> 10 µM
O=C(O)C(CO)NC(=O)n1c2ccccc2c2ccccc21 (configuration not stated),TGI,786-0 renal,> 100 µM
same,TGI,EKVX NSCLC,> 100 µM
same,TGI,HT29 colon,> 100 µM
same,TGI,K-562 leukemia,> 100 µM
same,TGI,MALME-3M melanoma,> 100 µM
same,TGI,SF-295 CNS,> 100 µM
same,TGI,SF-539 CNS,> 100 µM
